The source of these data is patent US8980911B2, “Heterocyclic compounds as protein kinase inhibitors” (Daiichi Sankyo Company, Limited, priority 2011, dated 2015).

Some results are limits rather than exact numbers.

Format in all cases: biochemical
In one test the target is T1, JAK2 (Homo sapiens, UniProt O60674).
T1 construct: All enzymes only contain the catalytic domain; His (N); purchased Carna Bioscience, Inc; host or cells: baculovirus expression system
Put plainly: In vitro enzyme assay (cell-free HTRF kinase assay), JAK2. The conditions noted are these: catalytic domain, His-tag; ATP 10 μM, SRCtide 25 nM, reaction 30 min. The method, then: (§1) Kinase buffer [50 mM HEPES (pH 7.5), 1 mM EGTA, 10 mM MgCl2, 2 mM DTT and 0.01% Tween-20) was prepared and dilutions of a compound of formula (I) and other reagents were subsequently made in it. Two times concentrated compound of formula (I) solution: A compound of formula (I) was diluted to 100-fold final concentration in DMSO, followed by 50-fold dilution with Kinase buffer (1% DMSO final concentration). Four times concentrated Substrate/ATP mix solution: Biotin-SRCtide and ATP were diluted to 4-fold final concentration in Kinase buffer. Biotin-SRCtide solution (purchased from Anaspec) was mixed with ATP solution (1:1). Four times concentrated Enzyme solution: JAK1 or JAK2 or JAK3 or TYK2 enzyme [Human baculo virus expressed JAK1, JAK2, JAK3 and TYK2 were purchased from Carna Bioscience, Inc. All enzymes only contain the catalytic domain. JAK1 (aa 850-1154) and TYK2 (aa 871-1187) are expressed with an N-terminally fused GST-tag, and JAK2 and JAK3 with an N-terminally fused His-tag] was diluted to 4-fold final concentration in Kinase buffer and always kept on ice. Detection buffer: LANCE detection buffer (10 times concentrated) was diluted 10-fold in H2O. Four times concentrated stop solution: EDTA was diluted to a concentration of 40 mM in detection buffer. Four times concentrated ULight/Eu-antibody (from Perkin Elmer) mix solution: ULight-Streptavidin was diluted to a concentration of 100 nM (25 ng/mL final concentrations) and Eu-anti-phospho-Tyrosine (PT66) (from Perkin Elmer) was diluted to a concentration of 8 nM (2 ng/mL final concentration) in detection buffer.
(§2) Cell-free in vitro kinase assay was performed in 384 well plates. Two times concentrated compound solution (5 μL) was pipetted into a HTS 384SV Small Volume Plate. Four times concentrated Substrate/ATP mix (2.5 μL) solution was added along with 4 times concentrated Enzyme solution (2.5 μL). Plate was covered with TopSeal-A and incubated at room temperature for indicated time (Table 3). Four times concentrated Stop solution (5 μL, 10 mM final concentration) was added and incubated for 5 minutes at room temperature. Four times concentrated ULight/Eu-antibody mix solution (5 μL) was added and again plate was covered with TopSeal and incubated overnight at 4° C. TopSeal was removed and HTRF signal was measured at 615 nm and […] (excitation at 320 or 340 nm) on Tecan M1000 Multi mode plate reader. Ratio (665 nm/615 nm)×10^4 was calculated and IC50 values were deduced from Graph-pad prism 4.2.
For orientation: TR-FRET usually uses a lanthanide donor and a delayed reading to cut background.

A further test has as its target T2, JAK1 (Homo sapiens, UniProt P23458).
T2 construct: JAK1 (aa 850-1154) and TYK2 (aa 871-1187) are expressed with an N-terminally fused GST-tag; GST (N); purchased Carna Bioscience, Inc; host or cells: baculovirus expression system
Briefly: In vitro enzyme assay (cell-free HTRF kinase assay), JAK1. The settings on record: catalytic domain aa 850-1154, GST-tag; ATP 60 μM, SRCtide 400 nM, reaction 120 min. The method, then: as §1, §2

The target of the next test is T3, JAK3 (Homo sapiens, UniProt P52333).
T3 construct: All enzymes only contain the catalytic domain; His (N); purchased Carna Bioscience, Inc; host or cells: baculovirus expression system
Put plainly: In vitro enzyme assay (cell-free HTRF kinase assay), JAK3. The conditions noted are these: catalytic domain, His-tag; ATP 3 μM, SRCtide 100 nM, reaction 30 min. The method, then:
as §1, §2

T1 sequence (O60674 849-1124 limits assumed): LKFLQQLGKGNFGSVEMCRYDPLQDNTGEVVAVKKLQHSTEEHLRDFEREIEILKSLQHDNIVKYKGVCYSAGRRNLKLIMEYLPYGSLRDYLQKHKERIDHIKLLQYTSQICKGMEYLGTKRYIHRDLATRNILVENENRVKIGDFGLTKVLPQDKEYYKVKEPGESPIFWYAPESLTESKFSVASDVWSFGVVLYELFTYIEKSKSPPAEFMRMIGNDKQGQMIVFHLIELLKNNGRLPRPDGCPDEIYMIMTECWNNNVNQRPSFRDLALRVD
T3 sequence (P52333 822-1111 limits assumed): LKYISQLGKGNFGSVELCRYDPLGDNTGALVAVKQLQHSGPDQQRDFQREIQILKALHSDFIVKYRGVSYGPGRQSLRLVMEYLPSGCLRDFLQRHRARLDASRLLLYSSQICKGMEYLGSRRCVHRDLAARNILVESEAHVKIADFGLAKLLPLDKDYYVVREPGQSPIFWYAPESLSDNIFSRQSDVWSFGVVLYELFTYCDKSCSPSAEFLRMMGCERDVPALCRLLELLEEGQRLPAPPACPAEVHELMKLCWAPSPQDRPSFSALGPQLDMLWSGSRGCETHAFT
T2 sequence (P23458 850-1154): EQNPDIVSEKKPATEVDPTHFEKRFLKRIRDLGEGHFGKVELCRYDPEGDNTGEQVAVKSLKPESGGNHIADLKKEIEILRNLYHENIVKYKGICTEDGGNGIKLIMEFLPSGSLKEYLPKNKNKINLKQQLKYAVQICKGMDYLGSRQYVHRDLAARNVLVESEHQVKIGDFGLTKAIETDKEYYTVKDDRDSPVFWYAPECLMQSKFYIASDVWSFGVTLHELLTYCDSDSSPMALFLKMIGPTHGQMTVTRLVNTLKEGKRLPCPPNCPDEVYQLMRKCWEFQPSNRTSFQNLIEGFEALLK

As for `O=C(NCCCN1CCOCC1)c1cc(Cl)c(C(=O)n2ccc3c(NC(=O)C4CC4)nccc32)c(Cl)c1` [Compound No. 149, 3,5-Dichloro-4-({4-[(cyclopropylcarbonyl)amino]-1H-pyrrolo[3,2-c]pyridin-1-yl}carbonyl)-N-[3-(morpholin-4-yl)propyl]benzamide], the IC50 was less than 1000 nM at JAK2, less than 500 nM against JAK1 and less than 500 nM at JAK3.
Turning to `CNC(=O)c1cc(F)c(C(=O)c2c[nH]c3c(NC(=O)C4CC4)nccc23)c(F)c1` [Compound No. 61, 4-({7-[(Cyclopropylcarbonyl)amino]-1H-pyrrolo[2,3-c]pyridin-3-yl}carbonyl)-3,5-difluoro-N-methylbenzamide], the IC50 against JAK2 is less than 500 nM; against JAK1, less than 1000 nM; against JAK3, less than 500 nM.
For the compound `O=C(NCCn1cccc1)c1cc(Cl)c(C(=O)n2ccc3c(NC(=O)C4CC4)nccc32)c(Cl)c1` [Compound No. 168, 3,5-Dichloro-4-({4-[(cyclopropylcarbonyl)amino]-1H-pyrrolo[3,2-c]pyridin-1-yl}carbonyl)-N-[2-(1H-pyrrol-1-yl)ethyl]benzamide], the figures for the IC50 at JAK2, against JAK1 and against JAK3 were less than 1000 nM, less than 1000 nM and less than 500 nM, respectively.
In the case of `CC(=O)Nc1nccc2c(C(=O)c3c(Cl)cc(C(=O)NCCN4CCCCC4)cc3Cl)c[nH]c12` [Compound No. 42, 4-{[7-(Acetylamino)-1H-pyrrolo[2,3-c]pyridin-3-yl]carbonyl}-3,5-dichloro-N-[2-(piperidin-1-yl)ethyl]benzamide], the IC50 on JAK2, against JAK1 and on JAK3 was less than 1000 nM throughout.
`O=C(NCC1CC1)c1cc(Cl)c(C(=O)c2c[nH]c3c(NC(=O)C4CC4)nccc23)c(Cl)c1` [Compound No. 55, 3,5-Dichloro-4-({7-[(cyclopropylcarbonyl)amino]-1H-pyrrolo[2,3-c]pyridin-3-yl}carbonyl)-N-(cyclopropylmethyl)benzamide]: the IC50 against JAK2, against JAK1 and against JAK3 was less than 500 nM in each case.
Consider `O=C(Nc1cc(Cl)c(C(=O)n2ccc3c(NC(=O)C4CC4)nccc32)c(Cl)c1)NC1CC1` [Compound No. 113, N-(1-{2,6-Dichloro-4-[(cyclopropylcarbamoyl)amino]benzoyl}-1H-pyrrolo[3,2-c]pyridin-4-yl)cyclopropanecarboxamide], for which the IC50 against JAK2 was less than 500 nM; against JAK1 it was less than 1000 nM; against JAK3, less than 500 nM.
As for `O=C(Nc1nccc2c1ccn2C(=O)c1c(Cl)cc(-c2cncnc2)cc1Cl)C1CC1` [Compound No. 89, N-{1-[2,6-Dichloro-4-(pyrimidin-5-yl)benzoyl]-1H-pyrrolo[3,2-c]pyridin-4-yl}cyclopropanecarboxamide], the concentration for half-maximal inhibition (IC50) against JAK2 was less than 50 nM; on JAK1 it was less than 1000 nM; against JAK3, less than 500 nM.
For the compound `COCCNC(=O)Nc1cc(Cl)c(C(=O)n2ccc3c(NC(=O)C4CC4)nccc32)c(Cl)c1` [Compound No. 111, N-[1-(2,6-Dichloro-4-{[(2-methoxyethyl)carbamoyl]amino}benzoyl)-1H-pyrrolo[3,2-c]pyridin-4-yl]cyclopropanecarboxamide], the values for the IC50 against JAK2, at JAK1 and on JAK3 were less than 500 nM, less than 1000 nM and less than 500 nM, respectively.
As to `O=C(Nc1nccc2c1ccn2C(=O)c1c(Cl)cc(CNCCN2CCNC2=O)cc1Cl)C1CC1` [Compound No. 165, N-{1-[2,6-Dichloro-4-({[2-(2-oxoimidazolidin-1-yl)ethyl]amino}methyl)benzoyl]-1H-pyrrolo[3,2-c]pyridin-4-yl}cyclopropanecarboxamide], the IC50 was less than 500 nM against JAK2, less than 1000 nM against JAK1 and less than 500 nM on JAK3.
With `O=C(NCCF)c1cc(F)c(C(=O)c2c[nH]c3c(NC(=O)C4CC4)nccc23)c(F)c1` [Compound No. 59, 4-({7-[(Cyclopropylcarbonyl)amino]-1H-pyrrolo[2,3-c]pyridin-3-yl}carbonyl)-3,5-difluoro-N-(2-fluoroethyl)benzamide], the 50% inhibitory concentration (IC50) on JAK2, against JAK1 and on JAK3 was less than 500 nM throughout.

Usually IC50 stands for the concentration that inhibits the measured activity by half. The low end stands for inhibition by little substance, the high end for a need for much substance.
